Experimental data from a compilation of properties of binary mixtures (doi:10.1021/acs.jced.2c00294).

Assay: xn = mol fraction of the nth substance listed
Conditions: 101 kPa

N#C[N-]S(=O)(=O)C(F)(F)F.[Li+] + CCCC[N+]1(CCCC1)C.[N-](C#N)S(=O)(=O)C(F)(F)F
Conditions | electrical conductivity, x1 = 0.05 [S/m] | electrical conductivity, x1 = 0.1 [S/m] | electrical conductivity, x1 = 0.2 [S/m] | viscosity, x1 = 0.05 [mPa·s] | viscosity, x1 = 0.1 [mPa·s] | viscosity, x1 = 0.2 [mPa·s]
298 K | 0.314 | 0.227 | 0.08 | 73 | 107.9 | 379
303 K | 0.372 | – | 0.101 | 62.2 | – | 312
308 K | 0.442 | 0.334 | 0.127 | 50.5 | 73 | 243
313 K | 0.523 | 0.401 | 0.156 | 42.4 | 60.7 | 191
318 K | 0.611 | 0.513 | – | 35.8 | 50.6 | –
323 K | – | – | 0.234 | – | – | 121.8
328 K | – | – | – | 23.6 | – | 99.9

CCCC[N+]1(C)CCCC1.N#C[N-]C#N + CCCC[N+]1(C)CCCC1.O=S(=O)([N-]S(=O)(=O)C(F)(F)F)C(F)(F)F
x2 = 0.5
Conditions | electrical conductivity [S/m] | viscosity [mPa·s]
298 K | 0.565 | 51.3
303 K | 0.642 | 36.1
308 K | 0.746 | 32
313 K | 0.857 | 26.7
328 K | – | 17.06

CCCC[N+]1(C)CCCC1.N#C[N-]S(=O)(=O)C(F)(F)F + [Li+].[N-](C#N)S(=O)(=O)C(F)(F)F
x2 = 0
Conditions | electrical conductivity [S/m] | viscosity [mPa·s]
298 K | 0.458 | 45.9
303 K | 0.546 | 40.4
318 K | 0.869 | 24.6
323 K | 1 | 21.5
328 K | – | 16.19
